From US20230149510A1, “METHOD FOR ALLEVIATING ARTHRITIS USING EPIDERMAL GROWTH FACTOR” (Lovin BioMed Co., Ltd., priority 2021, published 2023)

Assays:
[1] = system: monosodium iodoacetate (MIA)-induced osteoarthritis (OA), right knee joint; assay: Diameter of right knee joint in MIA-induced OA rats; format: in vivo, Sprague Dawley rats; details: 30 μL intraarticular on day 3 and day 14, measured end of day 28 with caliper, FIG. 1
Experimental: A. Preparation of mixture containing EGF, CS, and HA EGF, CS, and HA were mixed in a weight ratio of 1:100:1000 in sterile water, so as to obtain a mixture containing EGF (20 μg/g), CS, and HA.
Male Sprague Dawley rats (6 weeks old, with a body weight of approximately 200 to 300 g) used in the following experiments were purchased from National Laboratory Animal Center, Taipei City, Taiwan. All the experimental mice were housed in an animal room under the following laboratory conditions: an alternating 12-hour light and 12-hour dark cycle, a temperature maintained at 21° C. to 24° C., and a relative humidity maintained at 45% to 70%. Furthermore, water and feed were provided ad libitum for all the experimental mice. All experimental procedures involving the experimental mice were in compliance with the legal provision of the Institutional Animal Care and Use Committee of National Chung Hsing University, Taiwan, and were carried out according to the Guide for the Care and Use of Laboratory Animals of National Institutes of Health (NIH).
The Sprague Dawley rats were divided into five groups, including one normal control group, one pathological control group, one comparative group, and two experimental groups (i.e., experimental groups 1 to 2) (n=5 rats in each group). […]
(§1) The data thus obtained were analyzed according to the method described in section 1 of “General Procedures”.

[2] = system: serum COMP, TNF-α, IL-1β, IL-6, IL-17A, PGE2 and NO in MIA-induced OA; assay: OA biomarkers and inflammatory markers in serum sample (ELISA, Griess assay), MIA-induced OA; format: in vivo, Sprague Dawley rats; details: rat serum; for content of cartilage oligomeric matrix protein (COMP): day 28, FIG. 3; for content of IL-1β / content of IL-6 / content of IL-17A / content of TNF-α: day 28, FIG. 4; for content of PGE2: day 28, FIG. 5; for content of NO: day 28, Griess assay, FIG. 5
Experimental: The Sprague Dawley rats were divided into five groups, including one normal control group, one pathological control group, one comparative group, and two experimental groups (i.e., experimental groups 1 to 2) (n=5 rats in each group).
The right knee joint of the respective rat in the pathological control group, the comparative group, and the experimental groups 1 and 2 was intraarticularly injected with 30 μL of a monosodium iodoacetate (MIA) solution (50 g/L, in 0.9% normal saline). In addition, the right knee joint of the respective rat in the normal control group was intraarticularly injected with 30 μL of 0.9% normal saline.
On day 3 and day 14 after injection of the MIA solution, the right knee joint of the respective rat in the comparative group was intraarticularly injected with 30 μL of 1% HA, the right knee joint of the respective rat in the experimental group 1 was intraarticularly injected with 30 μL of the EGF solution (containing 20 μg/g EGF), the right knee joint of the respective rat in the experimental group 2 was intraarticularly injected with 30 μL of the mixture solution (containing 20 μg/g EGF), and the right knee joint of the respective rat in the pathological control group was intraarticularly injected with 30 μL of 0.9% normal saline. In addition, the rats of the normal control group received no treatment.
After determining the diameter of right knee joint at the end of day 28 as described in section D of this example, the rats in each group were sacrificed by virtue of 95% CO2 asphyxiation. Next, a blood sample was collected from the heart of each rat through arterial puncture using a 25G needle, and was then subjected to centrifugation at 1,500 g and 25° C. for 10 minutes, so as to obtain a serum sample. Thereafter, the right knee joint tissue of the respective rat in each group was obtained from each rat carcass and was washed with 0.9% normal saline.
The respective serum sample obtained in section E of this example was diluted 5-fold with RPMI 1640 medium. Thereafter, the content of cartilage oligomeric matrix protein (COMP) was determined using a rat COMP ELISA Kit (Cusabio, Cat. No. CSB-E13833r) in accordance with the manufacturer's instructions. In addition, the contents of TNF-α, IL-1β, IL-6, and IL-17A were respectively determined using a TNF-α ELISA Kit (Invitrogen, Cat. No. 88-7340-88), an IL-1β ELISA Kit (Invitrogen, Cat. No. 88-6010-22), an IL-6 ELISA Kit (Invitrogen, Cat. No. 88-50625-88), and an IL-17A ELISA Kit (Invitrogen, Cat. No. 88-7170-22) in accordance with the manufacturer's instructions. The content of prostaglandin E2 (PGE2) was determined using a PGE2 ELISA Kit (Cusabio, Cat. No. CSB-E07967r) in accordance with the manufacturer's instructions.
Moreover, the content of nitric oxide (NO) was determined using the Griess assay. Briefly, 100 μL of the respective serum sample obtained in section E of this example was mixed with 100 μL of a Griess reagent (containing 0.2% N-(1-Naphthyl)ethylenediamine, 2% sulfanilamide, and 5% phosphoric acid), followed by being left standing for reaction to proceed at room temperature for 10 minutes. The resultant reaction mixture was subsequently subjected to determination of absorbance at a wavelength of 540 nm (OD540) using a spectrophotometer. The OD540 values obtained were subsequently converted to concentration expressed in pg/mL based on a correlation curve previously prepared by plotting different known concentrations of sodium nitrate standards versus OD540 values thereof.
as §1

Substance	diameter of the right knee joint [1]	content of cartilage oligomeric matrix protein (COMP) [2]	content of IL-1β [2]	content of IL-6 [2]	content of IL-17A [2]	content of TNF-α [2]	content of PGE2 [2]	content of NO [2]
hyaluronic acid [HA, reference compound]	lower than that determined in the pathological control group	lower than that determined in the pathological control group	lower than those determined in the pathological control group	lower than those determined in the pathological control group	lower than those determined in the pathological control group	lower than those determined in the pathological control group	lower than those determined in the pathological control group	lower than those determined in the pathological control group
EGF: Epidermal growth factor (Cat. No. 02-108, Joycom Bio-chem) dissolved in PBS, 20 μg/g EGF; given to experimental group 1 (NSDSECPLSHDGYCLHDGVCMYIEALDKYACNCVVGYIGERCQYRDLKWWELR; UniProt P01133 971-1023, looked up)	lower than that determined in the pathological control group	lower than that determined in the pathological control group	lower than those determined in the pathological control group	lower than those determined in the pathological control group	lower than those determined in the pathological control group	lower than those determined in the pathological control group	lower than those determined in the pathological control group	lower than those determined in the pathological control group
